Patent US20110212434A1, “NOVEL HIV-BASED RECOMBINANT VIRAL CLONES AND USE THEREOF IN ANALYTICAL METHODS” (priority 2004, published 2011)

Tested on: virus with the mutations M41L, K07R, T215F, K219Q
Experiment: Determination system for phenotypic resistances to antiretroviral drugs (renilla activity, recombinant viral clones)
Assay type: cell-based, HIV
Conditions: K219Q versus wild type virus, FIG. 2b
Experimental: It can be schematically seen in FIGS. 1a and 1b how the viral particles are produced in culture supernatants during the 48 hours following transfection of the recombinat virus carrying viral sequences amplified from patients's plasma in 293T cells. The 293T cell line was obtained from the Deposit of the ATCC. The progeny of recombinant viruses are collected 48 hours after transfection in and used to infect the SSPA-B7 clone as target. This cellular clone was obtained by the applicant from the MT-2 cell line by means of transfection of an expression vector of the gene CCR5 provided with a resistance marker for Genetycin. Expression of both major viral coreceptors (CCR5 as a transgene and CXCR4 naturally) allows the infection with viral carrying different envelopes that use CCR5, CXCR4 receptors or both. […] The capacity of the viruses to complete a replication cycle is quantified by measuring the luciferase activity in the target cells. When phenotypic resistance to protease inhibitors is analyzed, the drug should be added to the producer cell (293-T) because viral morphogenesis driven by the protease is generated in this step of the viral cycle. In contrast, phenotypic resistance towards inhibitors of reverse transcriptase and of entry is measured by adding the drugs to the infected cells because such processes (entry and retrotranscription) take place in the target cell. […]

`Cc1cn([C@H]2C[C@H](N=[N+]=[N-])[C@@H](CO)O2)c(=O)[nH]c1=O` [AZT] was tested, and the “Fold (AZT resistance)” value was 36.
